Data taken from publication PMC5376326, “Inhibition of ANO1 by luteolin and its cytotoxicity in human prostate cancer PC-3 cells” (PLoS ONE, 2017).

Legend:
FRT cells = experiment: Intracellular calcium measurement (Fluo-4) in FRT cells; type: cell-based, rat; conditions: 30 and 100 μM, 20 min pretreatment, 100 μM ATP
Procedure: Intracellular calcium levels were monitored using Fluo-4 NW calcium assay kit (Invitrogen, Carlsbad, CA) as per the manufacturer's protocol in FRT and PC-3 cells. Briefly, the cells were cultured in a 96 well plate and incubated with 100 μL assay buffer including Fluo-4 NW. After 1 hour incubation, Fluo-4 fluorescence was measured with a FLUOstar Omega microplate reader equipped with syringe pumps and custom Fluo-4 excitation/emission filters (485/538 nm). Intracellular calcium increase was induced by application of 100 μM ATP.

ANO1 = target: T1, ANO1 (Homo sapiens, UniProt Q5XXA6, DEL476-501); experiment: Whole-cell patch-clamp in ANO1-expressing FRT cells; type: cell-based; conditions: 100 μM ATP, read-out: Inhibition of ANO1 chloride currents
T1 sequence (Q5XXA6 with tags, fused parts or gaps isoform Q5XXA6-5 DEL539-564): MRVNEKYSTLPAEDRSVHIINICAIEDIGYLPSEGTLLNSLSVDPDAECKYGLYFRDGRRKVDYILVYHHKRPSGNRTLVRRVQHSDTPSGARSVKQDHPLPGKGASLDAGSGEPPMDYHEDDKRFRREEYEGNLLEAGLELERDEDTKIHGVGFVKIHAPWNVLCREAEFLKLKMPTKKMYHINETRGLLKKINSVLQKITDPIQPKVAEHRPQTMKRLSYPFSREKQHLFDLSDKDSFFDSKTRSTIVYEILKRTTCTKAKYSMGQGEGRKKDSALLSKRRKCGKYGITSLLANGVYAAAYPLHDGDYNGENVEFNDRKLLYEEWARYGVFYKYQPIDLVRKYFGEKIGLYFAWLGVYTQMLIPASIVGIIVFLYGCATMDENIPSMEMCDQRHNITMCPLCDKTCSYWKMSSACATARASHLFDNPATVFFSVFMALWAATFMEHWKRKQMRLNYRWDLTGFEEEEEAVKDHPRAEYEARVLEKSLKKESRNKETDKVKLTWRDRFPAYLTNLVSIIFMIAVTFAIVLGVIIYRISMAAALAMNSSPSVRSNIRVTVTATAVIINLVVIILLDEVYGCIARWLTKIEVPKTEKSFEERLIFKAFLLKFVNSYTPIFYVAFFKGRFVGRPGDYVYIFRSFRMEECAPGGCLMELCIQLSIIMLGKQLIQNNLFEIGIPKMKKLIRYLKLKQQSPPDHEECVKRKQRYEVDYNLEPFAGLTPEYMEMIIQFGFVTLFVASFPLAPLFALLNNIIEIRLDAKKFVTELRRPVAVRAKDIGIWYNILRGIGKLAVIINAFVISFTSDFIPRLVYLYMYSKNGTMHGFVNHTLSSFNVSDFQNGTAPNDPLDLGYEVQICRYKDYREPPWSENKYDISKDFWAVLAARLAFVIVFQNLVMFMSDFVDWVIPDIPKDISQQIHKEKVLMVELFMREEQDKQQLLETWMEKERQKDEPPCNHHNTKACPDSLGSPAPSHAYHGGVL
Procedure: Patch-clamp recordings were performed on ANO1-expressing FRT cells using the whole-cell recording configuration. The bath solution contained (in mM): 140 NMDG-Cl, 1 CaCl2, 1 MgCl2, 10 glucose and 10 HEPES (pH 7.4). The pipette solution contained (in mM): 130 CsCl, 0.5 EGTA, 1 MgCl2, 1 Tris-ATP, and 10 HEPES (pH 7.2). Pipettes were pulled from borosilicate glass and had resistances of 3–5 MΩ after fire polishing. Seal resistances were between 3 and 10 GΩ. The liquid junction potential (~2.4 mV) was not corrected. After establishing the whole-cell configuration, whole-cell capacitance and series resistance were compensated with the amplifier circuitry. After establishing the whole-cell configuration, ANO1 was activated by ATP (100 μM). Whole-cell currents were elicited by applying hyperpolarizing and depolarizing voltage pulses from a holding potential of 0 mV to potentials between -80 mV and +80 mV in steps of 20 mV. Recordings were made at room temperature using an Axopatch-200B (Axon Instruments, Union City, CA). Currents were digitized and analyzed using a Digidata 1440A converter (Axon Instruments), and pCLAMP 10.2 software (Molecular Devices, Sunnyvale, CA). Currents were low-pass filtered at 1 kHz and sampled at 5 kHz.

For `O=c1cc(-c2ccc(O)c(O)c2)oc2cc(O)cc(O)c12` [luteolin], the “Effect on ATP-induced cytosolic calcium increase” value (FRT cells) was “not affected”, the inhibition at 10 µM (ANO1; 10 μM) was 55.3 ± 2.8% and the inhibition at 100 µM (ANO1; 100 μM) was 99.2 ± 0.2%.
